From patent US6284768A, “Src family SH2 domain inhibitors” (Boehringer Ingelheim Pharmaceuticals, Inc., priority 1999, dated 2001) come the findings set out here.

The structures appear in SMILES notation.

T1 sequence (P06239 127-224 limits assumed): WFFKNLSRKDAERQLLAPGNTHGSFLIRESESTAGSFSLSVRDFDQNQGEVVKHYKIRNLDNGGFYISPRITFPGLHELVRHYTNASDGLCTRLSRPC

This experiment addresses T1, p56lck GST-SH2 (lck SH2 domain) (Homo sapiens, UniProt P06239).
T1 construct: GST (N)
The experiment is described as follows: Receptor-ligand equilibrium binding constants by surface plasmon resonance (biosensor), lck SH2 domain. Conditions: Table 1, compounds of formula (II). The protocol:
The general methods for the determination of Receptor-Ligand Kinetic and Equilibrium Binding Constants using Surface Plasmon Resonance as applied to the lck SH2 Domain have been described in: M. M. Morelock, R. H. Ingraham, R. Betageri.
General Biosensor Methods.
The mobile phase buffer, 10 mM HEPES, pH 7.4, 150 mM NaCl, and 0.05% P-20, was maintained at a flow rate of 5 μL/min in all experiments. All buffers and protein solutions were filtered through a 0.2 um filter and degassed immediately before use.
Strepavidin was diluted to 0.25 mg/ml in 20 mM NaOAc buffer, pH 4.5 and immobilized by free amine coupling to approximately 3000 RU for all 4 flow cells from a single sensor chip .
Surface Kd Determinations.
The surface was regenerated by 4μL of 20 mM HCl followed by 4 μL of 150 mM Tris base. The values used in the analysis were the equilibrium plateau values from which the sample refractive index has been subtracted. For the data analyzed for linear function the equilibrium plateau values without the sample refractive index subtracted were used. Free solution Kd determinations. In a 96 well microtiter plate 20 nM SH2 domain suspended in running buffer containing 0.2 mg/ml BSA and 1 mM DT'T was distributed in 100 μL per well. The highest concentration of compound tested was added to the last well and titrated with 2 fold dilutions for a final of 10 concentrations to be run. 25 μL of the mixture was injected over a strepavidin-biotin-ε-aminohexanoic acid-EGQpYEEIPIA surface and regenerated with 4 μL of 20 mM HCl. […], of 150 mM Tris base was injected after every 11 samples. Typically 8 assays were run in an overnight programmed run.
(In SPR one partner is held on a chip, and binding of the other changes the refractive index at the surface.)
One may read the Kd as the free concentration of one partner at which half of the binding sites on the other are occupied at equilibrium, for simple one-to-one binding. A higher Kd goes with a looser complex. In turn, `COc1ccc(Cn2ccc(C)c(NC(=O)[C@H](Cc3ccc(NC(=O)C(=O)O)cc3)NC(=O)Cc3ccc(N(C)C)cc3)c2=O)cc1` [Compound 22] showed a Kd of 1.8 µM.
Under `COc1ccc(Cn2ccc(C)c(NC(=O)[C@H](Cc3ccc(NC(=O)C(=O)O)cc3)NC(=O)Cc3c[nH]c4ccccc34)c2=O)cc1` [Compound 5] stands 1.3 µM; under `COc1ccccc1Cn1ccc(C)c(NC(=O)[C@H](Cc2ccc(CC(=O)O)cc2)NC(=O)Cc2cccc3ccccc23)c1=O` [Compound 19], 37.2 µM; under `COc1ccc(Cn2ccc(C)c(NC(=O)[C@H](Cc3ccc(NC(=O)C(=O)O)cc3)NC(=O)c3csc(NS(=O)(=O)c4ccc(Cl)cc4)n3)c2=O)cc1` [Compound 14], 4.2 µM.
Under `COc1ccc(Cn2ccc(C)c(NC(=O)[C@H](Cc3ccc(CC(=O)O)cc3)NC(C)=O)c2=O)cc1` [Compound 89] stands 19 µM; under `COc1ccc(Cn2ccc(C)c(NC(=O)[C@H](Cc3ccc(CC(=O)O)cc3)NC(=O)Cc3ccccc3Oc3ccccc3)c2=O)cc1` [Compound 73], more than 250 µM.
Under `COc1ccc(Cn2ccc(C)c(NC(=O)[C@H](Cc3ccc(NC(=O)C(=O)O)cc3)NC(=O)Cc3csc(-c4cnccn4)n3)c2=O)cc1` [Compound 17] stands 3.4 µM; under `COc1ccc(Cn2ccc(C)c(NC(=O)[C@H](Cc3ccc(CC(=O)O)cc3)NC(=O)Cc3ccccc3)c2=O)cc1` [Compound 58], 5.6 µM; under `COc1ccc(Cn2ccc(C)c(NC(=O)[C@H](Cc3ccc(NC(=O)C(=O)O)cc3)NC(=O)OC(C)(C)C)c2=O)cc1` [Compound 4], 42.5 µM.
As to `COc1ccc(Cn2ccc(C)c(NC(=O)[C@H](Cc3ccc(NC(=O)C(=O)O)cc3)NC(=O)Cc3ccc(NC(C)C)cc3)c2=O)cc1` [Compound 47], the affinity, expressed as Kd, was 2.1 µM.
Under `CCCCCn1ccc(C)c(NC(=O)C(Cc2ccc(C(C)(C)C(=O)O)cc2)NC(=O)C(C)(C)c2ccc3ccccc3c2)c1=O` (stereo not shown) [Compound 193] stands 4.1 µM; under `COc1ccc(Cn2ccc(C)c(NC(=O)[C@H](Cc3ccc(NC(=O)C(=O)O)cc3)NC(=O)Cc3ccc(NC(=O)C(C)(C)C)cc3)c2=O)cc1` [Compound 104], 0.65 µM; under `COCCOCn1ccc(C)c(NC(=O)C(Cc2ccc(C(C)(C)C(=O)O)cc2)NC(=O)C(C)(C)c2ccc3ccccc3c2)c1=O` (stereo not shown) [Compound 190], 43 µM.
For the compound `COc1ccc(Cn2ccc(C)c(NC(=O)[C@H](Cc3ccc(CC(=O)O)cc3)NC(=O)C(C)(C)c3ccccc3)c2=O)cc1` [Compound 76], the Kd stood at 8.6 µM.
Turning to `COc1ccc(Cn2ccc(C)c(NC(=O)[C@H](Cc3ccc(CC(=O)O)cc3)NC(=O)Cc3ccc(CC(C)(C)C)cc3)c2=O)cc1` [Compound 163], the Kd was found to be 1.1 µM.
`COC1CCC(Cn2ccc(C)c(NC(=O)C(Cc3ccc(C(C)(C)C(=O)O)cc3)NC(=O)Cc3ccc4ccccc4c3)c2=O)CC1` (stereo not shown) [Compound 147] registered a dissociation constant (Kd) of 1.9 µM.
Under `COc1ccc(Cn2ccc(C)c(NC(=O)[C@H](Cc3ccc(NC(=O)C(=O)O)cc3)NC(=O)Cc3cccc(Br)c3)c2=O)cc1` [Compound 37] stands 0.65 µM.
Under `COc1ccc(Cn2ccc(C)c(NC(=O)[C@H](Cc3ccc(CC(=O)O)cc3)NC(=O)C(F)(F)F)c2=O)cc1` [Compound 87] stands 18 µM; under `Cc1ccn(Cc2ccc(C(C)C)cc2)c(=O)c1NC(=O)[C@H](Cc1ccc(C(C)(C)C(=O)O)cc1)NC(=O)Cc1cccc2ccccc12` [Compound 101], 4.3 µM.
The same measure for `COc1ccc(Cn2cc(Br)c(C)c(NC(=O)C(Cc3ccc(C(C)(C)C(=O)O)cc3)NC(=O)C(C)(C)c3ccc(Br)cc3)c2=O)cc1` (stereo not shown) [Compound 122]: 5.3 µM; for `COc1ccc(Cn2ccc(C)c(NC(=O)[C@H](Cc3ccc(CC(=O)O)cc3)NC(=O)COc3cccc4c(N(C)C)cccc34)c2=O)cc1` [Compound 167]: 1.2 µM.
`COc1ccc(Cn2ccc(C)c(NC(=O)[C@H](Cc3ccc(CC(=O)O)cc3)NC(=O)C3(c4ccccc4)CCCCC3)c2=O)cc1` [Compound 79] registered a Kd of 11 µM.
With `COc1ccc(Cn2ccc(C)c(NC(=O)[C@H](Cc3ccc(NC(=O)C(=O)O)cc3)NC(=O)Cc3ccccc3Br)c2=O)cc1` [Compound 38], the Kd was 3.2 µM.
The same measure for `COc1ccc(Cn2ccc(C)c(NC(=O)[C@H](Cc3ccc(CC(=O)O)cc3)NC(=O)Cc3cccc(O)c3)c2=O)cc1` [Compound 165]: 2.8 µM; for `Cc1ccn(C/C=C/c2ccccc2)c(=O)c1NC(=O)C(Cc1ccc(C(C)(C)C(=O)O)cc1)NC(=O)C(C)(C)c1ccc2ccccc2c1` (racemic) [Compound 116]: 3.2 µM.
Under `COc1ccc(Cn2ccc(C)c(NC(=O)[C@H](Cc3ccc(NC(=O)C(=O)O)cc3)NC(=O)Cc3csc(NC=O)n3)c2=O)cc1` [Compound 13] stands 4.6 µM; under `COc1ccc(Cn2cc(Br)c(C)c(NC(=O)[C@H](Cc3ccc(C(C)(C)C(=O)O)cc3)NC(=O)C(C)(C)c3ccc4ccccc4c3)c2=O)cc1` [Compound 233], 0.42 µM; under `COc1ccc(Cn2ccc(C)c(NC(=O)[C@H](Cc3ccc(NC(=O)C(=O)O)cc3)NC(=O)Cc3ccccc3N(C)C)c2=O)cc1` [Compound 35], 4 µM.
As for `COCCOCCn1ccc(C)c(NC(=O)C(Cc2ccc(C(C)(C)C(=O)O)cc2)NC(=O)Cc2ccc3ccccc3c2)c1=O` (stereo not shown) [Compound 143], the Kd came to 6 µM.
Under `Cc1ccn(CC2CCOC2)c(=O)c1NC(=O)C(Cc1ccc(C(C)(C)C(=O)O)cc1)NC(=O)Cc1cccc2ccccc12` (stereo not shown) [Compound 210] stands 15 µM.
For `COc1ccc(Cn2ccc(C)c(NC(=O)[C@H](Cc3ccc(NC(=O)C(=O)O)cc3)NC(=O)Cc3ccccc3[N+](=O)[O-])c2=O)cc1` [Compound 34], the Kd came to 2.4 µM.
The same measure for `COc1ccc(Cn2ccc(C)c(NC(=O)[C@H](Cc3ccc(CC(=O)O)cc3)NC(=O)Cc3ccc(N(C)C)cc3)c2=O)cc1` [Compound 93]: 12 µM; for `CCCCCCn1cc(C(=O)OC)c(C)c(NC(=O)C(Cc2ccc(C(C)(C)C(=O)O)cc2)NC(=O)Cc2ccc3ccccc3c2)c1=O` (stereo not shown) [Compound 240]: 0.74 µM.
The same measure for `COc1ccc(Cn2ccc(C)c(NC(=O)C(Cc3ccc(C(C)(C)C(=O)O)cc3)NC(=O)C(C)(C)c3ccc(N(C)C)cc3)c2=O)cc1` (stereo not shown) [Compound 230]: 0.51 µM.
Under `COc1ccc(Cn2cccc(NC(=O)[C@H](Cc3ccc(CC(=O)O)cc3)NC(=O)Cc3cccc4ccccc34)c2=O)cc1` [Compound 90] stands more than 250 µM.
`Cc1ccn(CC2CCOC2)c(=O)c1NC(=O)C(Cc1ccc(C(C)(C)C(=O)O)cc1)NC(=O)C(C)(C)c1ccc2ccccc2c1` (stereo not shown) [Compound 212] came in with a Kd of 23 µM.
The same measure for `COc1ccc(Cn2ccc(C)c(NC(=O)[C@H](Cc3ccc(CC(=O)O)cc3)NC(=O)[C@@H](C)c3ccc4cc(OC)ccc4c3)c2=O)cc1` [Compound 62]: 8.8 µM; for `Cc1ccn(CC2CCOC2)c(=O)c1NC(=O)C(Cc1ccc(C(C)(C)C(=O)O)cc1)NC(=O)Cc1ccc2ccccc2c1` (stereo not shown) [Compound 211]: 4.9 µM.
The same measure for `COc1ccc(Cn2ccc(C)c(NC(=O)C(Cc3ccc(C(C)(C)C(=O)O)cc3)N(C)C(=O)C(C)(C)c3ccc4ccccc4c3)c2=O)cc1` (stereo not shown) [Compound 161]: 460 µM; for `CCCCCn1ccc(C)c(NC(=O)C(Cc2ccc(C(C)(C)C(=O)O)cc2)NC(=O)Cc2cccc3ccccc23)c1=O` (stereo not shown) [Compound 191]: 3.1 µM; for `COc1ccc(Cn2cc(Br)c(C)c(NC(=O)[C@H](Cc3ccc(C(C)(C)C(=O)O)cc3)NC(=O)Cc3ccc(C(F)(F)F)cc3)c2=O)cc1` [Compound 228]: 0.08 µM.
The same measure for `COc1ccc(C(C)n2ccc(C)c(NC(=O)[C@H](Cc3ccc(CC(=O)O)cc3)NC(=O)Cc3cccc4ccccc34)c2=O)cc1` (stereo partly shown) [Compound 83]: 2.1 µM; for `COc1ccc(Cn2ccc(C)c(NC(=O)[C@H](Cc3ccc(NC(=O)C(=O)O)cc3)NC(=O)Cc3ccc([N+](=O)[O-])cc3)c2=O)cc1` [Compound 33]: 3.7 µM.
The compound `COc1ccc(Cn2ccc(C)c(NC(=O)[C@H](Cc3ccc(CC(=O)O)cc3)NC(=O)Cc3cc4ccccc4[nH]3)c2=O)cc1` [Compound 41] came in with a Kd of 4.7 µM.
Under `COc1ccc(Cn2ccc(C)c(NC(=O)[C@H](Cc3ccc(NC(=O)C(=O)O)cc3)NC(=O)Cc3ccccc3)c2=O)cc1` [Compound 102] stands 1.9 µM; under `COc1ccc(Cn2ccc(C)c(NC(=O)[C@H](Cc3ccc(NC(=O)C(=O)O)cc3)NC(=O)Nc3cccc4ccccc34)c2=O)cc1` [Compound 9], 64.5 µM; under `Cc1ccn(C/C=C/c2ccccc2)c(=O)c1NC(=O)C(Cc1ccc(C(C)(C)C(=O)O)cc1)NC(=O)C(C)(C)c1ccc2ccccc2c1` (stereo not shown) [Compound 177], 3.2 µM.
The same measure for `COc1ccc(Cn2ccc(C)c(NC(=O)[C@H](Cc3ccc(NC(=O)C(=O)O)cc3)NC(=O)N(C)c3cccc4ccccc34)c2=O)cc1` [Compound 25]: 2.1 µM.
The same measure for `Cc1ccn(Cc2ccc(C(=O)C(F)(F)F)cc2)c(=O)c1NC(=O)C(Cc1ccc(C(C)(C)C(=O)O)cc1)NC(=O)C(C)(C)c1ccc2ccccc2c1` (stereo not shown) [Compound 225]: 41 µM.
